Columns and labels:
human keratinocyte cells = assay: Hydrogen peroxide production in human keratinocytes (CM-H2DCFDA fluorescence); format: cell-based; conditions: 0.03% positive control; 60 Minutes
Procedure: The cells were treated with different amounts of the magnesium powder.

Albino male CD-1 mice = assay: Oxazolone immune cell-mediated skin inflammation model (ear biopsy weight); format: in vivo; conditions: 1 mg/ml positive control, topical to ear; 24 hours
[1] = test system: male albino Wistar rats (SPRAGUE DAWLEY); assay: CFA-induced ankle arthritis, joint swelling (paw volume difference); format: in vivo; conditions: positive control, 3 mg/kg once daily; CFA-induced paw vs control paw
[2] = test system: male albino Wistar rats (SPRAGUE DAWLEY); assay: CFA-induced ankle arthritis, incapacitance test (weight bearing); format: in vivo; conditions: positive control, 3 mg/kg once daily prior to the functional measurements

OO [H2O2, hydrogen peroxide]
Hydrogen peroxide production (fluorescence 485 nm excitation/530 nm emission) (human keratinocyte cells): 150.11 ± 2.9

C[C@]12CCC(=O)C=C1CC[C@@H]1[C@@H]2[C@@H](O)C[C@@]2(C)[C@H]1CC[C@]2(O)C(=O)CO [Hydrocortisone, hydrocortisone]
Percent Inhibition of Skin Inflammation (Albino male CD-1 mice): 70.3% ± 6.6%

CN1CC[C@]23c4c5ccc(O)c4O[C@H]2[C@@H](O)C=C[C@H]3[C@H]1C5.O=S(=O)(O)O [Morphine, morphine sulphate]
MEAN PAW VOLUME DIFFERENCE [1]: 1.38 mL
Deficiency Improvement, MEAN IMPROVEMENT (weight bearing percent minus Day 4 baseline, averaged over all time points) [2]: 16.85
